Here are results for eleven compounds from patent US8710264B2, “Antitumoral compounds” (priority 2007, dated 2014).

pIC50: −log10 of the molar value. ≈ marks a conversion by molar mass, not a printed value. Read-outs that look alike come from different tables or passages of the source.

One may read the GI50 as the concentration that inhibits growth by half. A higher GI50 goes with lower sensitivity of the cells. In general, MIC refers to the lowest concentration that inhibits growth of the organism. For orientation: IC50 means the concentration needed to halve the response being measured. As a reminder, the pIC50 is the negative decadic logarithm of the IC50, by convention in mol/L.

In one experiment the test system is A549. Description: Cytotoxicity assay, SRB colorimetric assay. Format: cell-based. As to conditions: Homo sapiens; for GI50: concentration that produces 50% growth inhibition; for LC50 (50% net cell killing): read-out: LC50; for IC (TGI): total growth inhibition (cytostatic effect). The source says:
(§1) The aim of this assay is to evaluate the in vitro cytostatic (ability to delay or arrest tumor cell growth) or cytotoxic (ability to kill tumor cells) activity of the samples being tested.
(§2) Evaluation of Cytotoxic Activity Using the SBR Colorimetric Assay
(§3) A colorimetric type of assay, using sulforhodamine B (SRB) reaction has been adapted for a quantitative measurement of cell growth and viability (following the technique described by Skehan P et al. J. Natl. Cancer Inst. 1990, 82, 1107-1112).
(§4) This form of assay employs SBS-standard 96-well cell culture microplates (Faircloth et al. Methods in Cell Science, 1988, 11(4), 201-205; Mosmann et al, Journal of Immunological. Methods, 1983, 65(1-2), 55-63). All the cell lines used in this study, derived from different types of human cancer, were obtained from the American Type Culture Collection (ATCC).
(§5) Cells were maintained in Dulbecco's Modified Eagle Medium (DMEM) supplemented with 10% Fetal Bovine Serum (FBS), 2 mM L-glutamine, 100 U/mL penicillin and 100 U/mL streptomycin at 37° C., 5% CO2 and 98% humidity. For the experiments, cells were harvested from subconfluent cultures using trypsinization and resuspended in fresh medium before counting and plating.
(§6) Cells were seeded in 96 well microtiter plates at 5×10^3 cells per well in aliquots of 150 μL, and allowed to attach to the plate surface for 18 hours in drug free medium. One control (untreated) plate of each cell line was fixed (as described below) and used for time zero reference value. Afterwards, test samples were added to the cultures in ten serial dilutions, in aliquots of 50 μL, ranging from 10 to 0.00262 μg/mL. After 48 hours exposure, the antitumor effect was estimated by the SRB method: Briefly, cells were washed twice with PBS, fixed for 15 min in 1% glutaraldehyde solution, rinsed twice in PBS, and stained in 0.4% SRB solution for 30 min at room temperature. Cells were then rinsed several times with 1% acetic acid solution and air-dried. SRB was then extracted in 10 mM trizma base solution and the absorbance measured in an automated spectrophotometric plate reader at 490 nm. Cell survival was expressed as percentage of control cell growth. The final effect of the sample being tested was estimated by applying the NCI algorithm (Boyd M R and Paull K D. Drug Dev. Res. 1995, 34, 91-104).
(§7) Using the mean±SD of triplicate cultures, a dose-response curve was automatically generated using nonlinear regression analysis. Three reference parameters were calculated (NCI algorithm) by automatic interpolation: GI50=concentration that produces 50% growth inhibition; TGI=total growth inhibition (cytostatic effect) and LC50=concentration that produces 50% net cell killing (cytotoxic effect).

A further experiment relates to HT29. Briefly: Cytotoxicity assay, SRB colorimetric assay. Format: cell-based. The settings on record: Homo sapiens; for GI50: concentration that produces 50% growth inhibition; for IC (TGI): total growth inhibition (cytostatic effect).
Excerpt: as §1, §2, §3, §4, §5, §6, §7
A general note: In SRB staining, fixed cells bind dye roughly in proportion to their protein.

For the next experiment, the system named is MDA-MB-231. Description: Cytotoxicity assay, SRB colorimetric assay. Format: cell-based. The settings on record: Homo sapiens; for GI50: concentration that produces 50% growth inhibition; for IC (TGI): total growth inhibition (cytostatic effect).
Excerpt: as §1, §2, §3, §4, §5, §6, §7

A further experiment relates to Saccharomyces cerevisiae. As to conditions: fungus Saccharomyces cerevisiae; cited from earlier work.
Experiment [1] has as its system L929 mouse fibroblast cell culture. As to conditions: toxicity toward L929 mouse fibroblast cell culture; cited from earlier work.
For a further experiment, the system named is breast cancer carcinoma. The settings on record: cited from earlier work.
[2] abbreviates: A549, 48 hours exposure, concentration that produces 50% net cell killing (cytotoxic effect).
[3] abbreviates: HT-29, HT29, 48 hours exposure, concentration that produces 50% net cell killing (cytotoxic effect), read-out: LC50 (the source's name).
[4] abbreviates: MDA-MB-231, 48 hours exposure, concentration that produces 50% net cell killing (cytotoxic effect), read-out: LC50 (the source's name).
Where [5] appears, read: MDA-MB-231, 48 h, read-out: LC50.

Consider `C/C(Cl)=C\C[C@@H](C/C=C\NC(=O)[C@@H](NC(=O)\C=C/C=C\C(C)=C\Cc1ccccc1)C(C)(C)C)O[Si](C)(C)C(C)(C)C` [Compound 32], for which the 50% growth inhibitory concentration (GI50) with A549 (A549, 48 hours exposure) came out at 490 nM; with HT29 (HT-29, HT29, 48 hours exposure) it was 490 nM; in the experiment with MDA-MB-231 (MDA-MB-231, 48 hours exposure) it was 833 nM. The LC50 (50% net cell killing) in the experiment on A549 (setting [2]) was determined as 1060 nM. Moreover, the IC (TGI) in the experiment with A549 (A549, 48 hours exposure) was determined as 686 nM; in the experiment on HT29 (HT-29, HT29, 48 hours exposure), 621 nM; with MDA-MB-231 (MDA-MB-231, 48 hours exposure) it was 1110 nM. In addition, the CC50 was determined as 849 nM in the experiment with HT29 (setting [3]) and 1500 nM in the experiment with MDA-MB-231 (setting [4]).
On to `C/C(Cl)=C\C[C@H](O)C/C=C\NC(=O)[C@@H](NC(=O)\C=C/C=C\C(C)=C\[C@H](C)c1ccccc1)C(C)(C)C` [Compound 38], for which the LC50 (50% net cell killing) in the experiment with A549 (A549, 48 h) was over 19500 nM. The concentration for 50% growth inhibition (GI50) in the experiment with A549 (A549, 48 hours exposure) stood at 1810 nM; in the experiment with HT29 (HT-29, HT29, 48 hours exposure), 1090 nM; in the experiment on MDA-MB-231 (MDA-MB-231, 48 hours exposure), 2140 nM. Also, the IC (TGI) worked out at 4870 nM with A549 (A549, 48 hours exposure); 1520 nM in the experiment on HT29 (HT-29, HT29, 48 hours exposure); 4480 nM with MDA-MB-231 (MDA-MB-231, 48 hours exposure). Moreover, the CC50 with HT29 (HT-29, 48 h, read-out: LC50) was 4680 nM; in the experiment on MDA-MB-231 (setting [5]), over 19500 nM.
For `COc1cc(/C=C(C)/C=C\C=C/C(=O)N[C@H](C(=O)N/C=C\C[C@H](C/C=C(\C)Cl)O[Si](C)(C)C(C)(C)C)C(C)(C)C)ccc1O[Si](C)(C)C(C)(C)C` [Compound 30], the GI50 was 671 nM in the experiment on A549 (A549, 48 hours exposure); 777 nM in the experiment on HT29 (HT-29, HT29, 48 hours exposure); 764 nM in the experiment with MDA-MB-231 (MDA-MB-231, 48 hours exposure). Moreover, the LC50 (50% net cell killing) with A549 (setting [2]) stood at 908 nM. In addition, the IC (TGI) came out at 764 nM in the experiment with A549 (A549, 48 hours exposure); 816 nM in the experiment with HT29 (HT-29, HT29, 48 hours exposure); 974 nM in the experiment with MDA-MB-231 (MDA-MB-231, 48 hours exposure). Moreover, the CC50 in the experiment with HT29 (setting [3]) came to 869 nM; in the experiment on MDA-MB-231 (setting [4]), 1260 nM.
As to `COC(=O)CNC(=O)CCC/C=C\NC(=O)/C=C(C)/C=C/[C@H](C)[C@H](OC)[C@H](C)[C@H](/C=C/c1ccccc1)OC` [crocacin D], in the experiment with Saccharomyces cerevisiae, the MIC is 0.0014 µg/mL (≈ 0.00259 µM). Further, the IC50 in experiment [1] is 0.06 µg/mL (≈ 0.111 µM).
For the compound `C/C(Cl)=C\C[C@H](O)C/C=C\NC(=O)[C@@H](NC(=O)\C=C/C=C\C(C)=C\Cc1ccccc1)C(C)(C)C` [Compound 33], the LC50 (50% net cell killing) in the experiment on A549 (A549, 48 h) is 7410 nM. Besides, the GI50 in the experiment on A549 (A549, 48 hours exposure) came out at 1580 nM; with HT29 (HT-29, HT29, 48 hours exposure) it was 1100 nM; in the experiment on MDA-MB-231 (MDA-MB-231, 48 hours exposure), 3010 nM. Further, the IC (TGI) in the experiment with A549 (A549, 48 hours exposure) was determined as 3410 nM; with HT29 (HT-29, HT29, 48 hours exposure), 1820 nM; with MDA-MB-231 (MDA-MB-231, 48 hours exposure) it was 4810 nM. In addition, the CC50 with HT29 (HT-29, 48 h, read-out: LC50) stood at 3810 nM; with MDA-MB-231 (setting [5]), 8010 nM.
Take `C/C(Cl)=C\C[C@@H](C/C=C\NC(=O)[C@@H](NC(=O)\C=C/C=C\C(C)=C\Cc1ccccc1)C(C)(C)C)OC(N)=O` [Compound 34]: in the experiment with A549 (A549, 48 h), the LC50 (50% net cell killing) is over 18400 nM. Further, the GI50 in the experiment with A549 (A549, 48 hours exposure) was found to be 701 nM; with HT29 (HT-29, HT29, 48 hours exposure), 443 nM; in the experiment with MDA-MB-231 (MDA-MB-231, 48 hours exposure) it was 1030 nM. Further, the IC (TGI) was 2770 nM with A549 (A549, 48 hours exposure); 572 nM in the experiment on HT29 (HT-29, HT29, 48 hours exposure); 4430 nM in the experiment with MDA-MB-231 (MDA-MB-231, 48 hours exposure). For the same compound, the CC50 in the experiment with HT29 (HT-29, 48 h, read-out: LC50) was 904 nM; in the experiment with MDA-MB-231 (setting [5]) it was over 18400 nM.
For `C/C(Cl)=C\C[C@@H](C/C=C\NC(=O)[C@@H](NC(=O)\C=C/C=C\C(C)=C\[C@H](C)c1ccccc1)C(C)(C)C)OC(N)=O` [Compound 39], in the experiment on A549 (A549, 48 h), the LC50 (50% net cell killing) is over 18000 nM. Further, the GI50 is 55.7 nM with A549 (A549, 48 hours exposure); 36 nM with HT29 (HT-29, HT29, 48 hours exposure); 91.7 nM in the experiment on MDA-MB-231 (MDA-MB-231, 48 hours exposure). The IC (TGI) with A549 (A549, 48 hours exposure) was over 18000 nM; with HT29 (HT-29, HT29, 48 hours exposure), 59.3 nM; in the experiment with MDA-MB-231 (MDA-MB-231, 48 hours exposure), 270 nM. The CC50 is 360 nM with HT29 (HT-29, 48 h, read-out: LC50) and over 18000 nM in the experiment on MDA-MB-231 (setting [5]).
On to `C/C(Cl)=C\C[C@@H](C/C=C\NC(=O)[C@@H](NC(=O)\C=C/C=C\C(C)=C\[C@H](C)c1ccccc1)C(C)(C)C)O[Si](C)(C)C(C)(C)C` [Compound 37], for which the GI50 in the experiment with A549 (A549, 48 hours exposure) worked out at 2870 nM; with HT29 (HT-29, HT29, 48 hours exposure), 3670 nM; in the experiment with MDA-MB-231 (MDA-MB-231, 48 hours exposure) it was 5260 nM. Moreover, the LC50 (50% net cell killing) in the experiment with A549 (setting [2]) amounted to 10800 nM. The IC (TGI) in the experiment with A549 (A549, 48 hours exposure) is 5900 nM; in the experiment with HT29 (HT-29, HT29, 48 hours exposure), 4460 nM; in the experiment on MDA-MB-231 (MDA-MB-231, 48 hours exposure), 7010 nM. The values for the CC50 in the experiment on HT29 (setting [3]) and in the experiment on MDA-MB-231 (setting [4]) were 5900 nM and 9400 nM, respectively.
In the case of `C=C/C=C\[C@H](C)[C@H](OC(N)=O)[C@@H](C)[C@H](O)[C@@H](C)C/C(C)=C\[C@H](C)[C@@H](O)[C@@H](C)/C=C\[C@@H](O)C[C@@H]1OC(=O)[C@H](C)[C@@H](O)[C@H]1C` (single isomer, unassigned) [(+)-discodermolide], in the experiment on breast cancer carcinoma, the pIC50 was 8.62.
`CC(=O)O[C@H]1C(=O)[C@@]2(C)[C@H]([C@H](OC(=O)c3ccccc3)[C@]3(O)C[C@H](OC(=O)[C@H](O)[C@@H](NC(=O)c4ccccc4)c4ccccc4)C(C)=C1C3(C)C)[C@]1(OC(C)=O)CO[C@@H]1C[C@@H]2O` [paclitaxel]: the pIC50 in the experiment with breast cancer carcinoma is 8.68.
With `C=CCCOC(=O)[C@@H](NC(=O)\C=C/C=C\C(C)=C\c1ccc(O)c(OC)c1)C(C)(C)C` [Compound 36], the GI50 with A549 (A549, 48 hours exposure) came out at 3270 nM; in the experiment with HT29 (HT-29, HT29, 48 hours exposure), 1960 nM; in the experiment with MDA-MB-231 (MDA-MB-231, 48 hours exposure), 1150 nM. In the experiment on A549 (setting [2]), the LC50 (50% net cell killing) is over 23400 nM. Moreover, the IC (TGI) with A549 (A549, 48 hours exposure) is over 23400 nM; in the experiment with HT29 (HT-29, HT29, 48 hours exposure) it was 7950 nM; with MDA-MB-231 (MDA-MB-231, 48 hours exposure), 2570 nM. Besides, the CC50 in the experiment with HT29 (setting [3]) is over 23400 nM; with MDA-MB-231 (setting [4]) it was 19200 nM.
